Test results reported in patent US11459336B2, “Pyrazine carbamates and their use as GluN2B receptor modulators” (JANSSEN PHARMACEUTICA NV, priority 2019, dated 2022).

Each molecule was assayed against T1, human GluN1/GluN2B NMDA receptors (Homo sapiens, UniProt Q13224) (assay: Calcium flux (FLIPR) assay on cloned human GluN1/GluN2B ion channels expressed in mammalian cells, standard assay). Details: glutamate ~EC40, 10 μM glycine, stable cell line with Tet-On induced expression.
T1 construct: expressed in transfected cells
T1 sequence (Q13224 27-1484, other chains not shown): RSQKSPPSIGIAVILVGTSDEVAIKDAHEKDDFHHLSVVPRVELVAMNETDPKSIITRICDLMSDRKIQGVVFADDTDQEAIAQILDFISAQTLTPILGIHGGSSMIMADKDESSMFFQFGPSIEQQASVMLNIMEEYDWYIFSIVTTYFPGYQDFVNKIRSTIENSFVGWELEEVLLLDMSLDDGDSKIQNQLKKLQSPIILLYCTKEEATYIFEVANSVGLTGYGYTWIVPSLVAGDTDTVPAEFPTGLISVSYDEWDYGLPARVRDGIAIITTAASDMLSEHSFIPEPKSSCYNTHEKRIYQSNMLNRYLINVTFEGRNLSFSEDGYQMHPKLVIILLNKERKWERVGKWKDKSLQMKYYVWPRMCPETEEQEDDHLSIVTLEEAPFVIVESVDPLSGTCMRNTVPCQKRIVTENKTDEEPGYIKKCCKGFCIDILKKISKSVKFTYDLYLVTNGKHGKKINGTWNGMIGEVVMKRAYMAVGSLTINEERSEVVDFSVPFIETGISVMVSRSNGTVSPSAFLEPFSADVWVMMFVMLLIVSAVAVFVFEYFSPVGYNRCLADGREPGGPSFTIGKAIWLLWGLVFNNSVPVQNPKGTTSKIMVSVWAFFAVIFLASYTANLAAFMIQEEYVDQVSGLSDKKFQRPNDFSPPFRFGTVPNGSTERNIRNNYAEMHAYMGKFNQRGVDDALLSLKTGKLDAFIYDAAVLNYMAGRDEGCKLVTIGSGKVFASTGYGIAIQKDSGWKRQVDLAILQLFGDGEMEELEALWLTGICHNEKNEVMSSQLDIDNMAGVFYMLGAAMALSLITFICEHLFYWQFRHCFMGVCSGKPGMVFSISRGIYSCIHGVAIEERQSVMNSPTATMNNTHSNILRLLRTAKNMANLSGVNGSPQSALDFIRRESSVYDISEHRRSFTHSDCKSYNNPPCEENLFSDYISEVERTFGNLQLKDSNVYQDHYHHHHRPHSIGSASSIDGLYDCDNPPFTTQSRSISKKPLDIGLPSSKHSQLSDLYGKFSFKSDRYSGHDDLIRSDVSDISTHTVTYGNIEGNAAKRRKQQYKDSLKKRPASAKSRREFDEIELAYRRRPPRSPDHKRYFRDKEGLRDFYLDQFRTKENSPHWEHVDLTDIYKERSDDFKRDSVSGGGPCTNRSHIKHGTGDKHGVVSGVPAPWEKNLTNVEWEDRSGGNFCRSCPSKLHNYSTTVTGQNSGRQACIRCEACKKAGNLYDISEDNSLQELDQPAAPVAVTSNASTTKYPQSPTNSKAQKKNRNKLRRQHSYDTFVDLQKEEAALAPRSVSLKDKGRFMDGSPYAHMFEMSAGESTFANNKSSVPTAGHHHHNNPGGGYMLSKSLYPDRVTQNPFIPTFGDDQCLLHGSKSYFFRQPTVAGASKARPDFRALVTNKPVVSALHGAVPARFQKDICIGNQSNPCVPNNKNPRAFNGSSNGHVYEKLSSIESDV
Type: cell-based
Description: NMDA receptors are ion channels that are highly permeable to Ca^2+ ions, rendering it possible to monitor NMDA receptor function using cell-based calcium flux assay. In this assay, co-agonists glutamate and glycine are added to cells heterologously expressing human GluN1/GluN2B NMDA receptors to initiate cellular Ca^2+ influx. The time course of the changes in intracellular calcium is measured using a fluorescent dye and a FLIPR (Fluorometric Imaging Plate Reader) device.
Twenty four hours before measurements, the expression of the NMDA receptors in the stable cell line is induced with Tet-On inducible system in the presence of a non-selective NMDA receptor blocker. On the day of the experiment, cell culture media is carefully washed and the cells are loaded with Calcium 5 Dye Kit (Molecular Devices) in dye loading buffer containing 137 mM NaCl, 4 mM KCl, 2 mM CaCl2, 0.5 mM MgCl2 (standard assay) or 1.5 mM MgCl2 (HTS assay), 10 mM HEPES and 5 mM D-glucose; pH 7.4. After 1 h incubation at the room temperature, the dye is washed away with the assay buffer (137 mM NaCl (standard assay) or 150 mM (HTS assay), 4 mM KCl (standard assay) or 3 mM (HTS assay), 2 mM CaCl2, 0.01 mM EDTA, 10 mM HEPES and 5 mM D-glucose; pH 7.4) In the FLIPR TETRA reader, various concentrations of the test compounds are added to the cells for 5 min while fluorescence is monitored to detect potential agonist activity. Next, co-agonists, glutamate and glycine are added for another 5 minutes. The concentration of glutamate corresponding to ˜EC40 (standard assay) or EC40 (HTS assay) is used to maximize the assay's signal window and ability to detect NMDA receptor antagonists and negative allosteric modulators. A saturating concentration (10 μM) of glycine is also present in the assay. A non-selective NMDA receptor antagonist, (+)MK-801 is used as a positive control for antagonist activity. The fluorescent signal in the presence of test compounds is quantified and normalized to the signal defined by the appropriate control wells.

IC50 | SMILES
20 nM | C[C@H]1CN(Cc2cncc(-c3ccc(F)c(OC(F)F)c3)n2)C(=O)O1 [Example 21, (5S)-3-[[6-[3-(Difluoromethoxy)-4-fluoro-phenyl]pyrazin-2-yl]methyl]-5-methyl-oxazolidin-2-one]
17 nM | O=C1OCCCN1Cc1cncc(-c2ccc(F)c(OC(F)F)c2)n1 [Example 22, 3-[[6-[3-(Difluoromethoxy)-4-fluoro-phenyl]pyrazin-2-yl]methyl]-1,3-oxazinan-2-one]
66 nM | Cc1ncc(-c2ccc(F)c(OC(F)F)c2)nc1CN1CC2(CC2)OC1=O [Example 23, 5-[[6-[3-(Difluoromethoxy)-4-fluoro-phenyl]-3-methyl-pyrazin-2-yl]methyl]-7-oxa-5-azaspiro[2.4]heptan-6-one]
78 nM | Cc1ncc(-c2ccc(F)c(OC(F)F)c2)nc1CN1C(=O)OC[C@H]1C [Example 24, (4R)-3-[[6-[3-(Difluoromethoxy)-4-fluoro-phenyl]-3-methyl-pyrazin-2-yl]methyl]-4-methyl-oxazolidin-2-one]
388 nM | Cc1ncc(-c2ccc(F)c(OC(F)F)c2)nc1CN1C(=O)OC[C@@H]1C [Example 25, (4S)-3-[[6-[3-(Difluoromethoxy)-4-fluoro-phenyl]-3-methyl-pyrazin-2-yl]methyl]-4-methyl-oxazolidin-2-one]
52 nM | Cc1ncc(-c2ccc(F)c(OC(F)F)c2)nc1CN1C[C@@H](C)OC1=O [Example 26, (5R)-3-[[6-[3-(Difluoromethoxy)-4-fluoro-phenyl]-3-methyl-pyrazin-2-yl]methyl]-5-methyl-oxazolidin-2-one]
48 nM | Cc1ncc(-c2ccc(F)c(OC(F)F)c2)nc1CN1C[C@H](C)OC1=O [Example 27, (5S)-3-[[6-[3-(Difluoromethoxy)-4-fluoro-phenyl]-3-methyl-pyrazin-2-yl]methyl]-5-methyl-oxazolidin-2-one]
39 nM | Cc1ncc(-c2ccc(F)c(OC(F)F)c2)nc1CN1CCCOC1=O [Example 28, 3-[[6-[3-(Difluoromethoxy)-4-fluoro-phenyl]-3-methyl-pyrazin-2-yl]methyl]-1,3-oxazinan-2-one]
19 nM | O=C1OC2(CC2)CN1Cc1cncc(-c2ccc(Cl)c(OC(F)F)c2)n1 [Example 29, 5-[[6-[4-Chloro-3-(difluoromethoxy)phenyl]pyrazin-2-yl]methyl]-7-oxa-5-azaspiro[2.4]heptan-6-one]
669 nM | CC1(C)CN(Cc2cncc(-c3ccc(Cl)c(OC(F)F)c3)n2)C(=O)O1 [Example 30, 3-[[6-[4-Chloro-3-(difluoromethoxy)phenyl]pyrazin-2-yl]methyl]-5,5-dimethyl-oxazolidin-2-one]
20 nM | C[C@@H]1CN(Cc2cncc(-c3ccc(Cl)c(OC(F)F)c3)n2)C(=O)O1 [Example 31, (5R)-3-[[6-[4-Chloro-3-(difluoromethoxy)phenyl]pyrazin-2-yl]methyl]-5-methyl-oxazolidin-2-one]
20 nM | C[C@H]1CN(Cc2cncc(-c3ccc(Cl)c(OC(F)F)c3)n2)C(=O)O1 [Example 32, (5S)-3-[[6-[4-Chloro-3-(difluoromethoxy)phenyl]pyrazin-2-yl]methyl]-5-methyl-oxazolidin-2-one]
21 nM | C[C@@H]1COC(=O)N1Cc1cncc(-c2ccc(Cl)c(OC(F)F)c2)n1 [Example 33, (4R)-3-[[6-[4-Chloro-3-(difluoromethoxy)phenyl]pyrazin-2-yl]methyl]-4-methyl-oxazolidin-2-one]
86 nM | C[C@H]1COC(=O)N1Cc1cncc(-c2ccc(Cl)c(OC(F)F)c2)n1 [Example 34, (4S)-3-[[6-[4-Chloro-3-(difluoromethoxy)phenyl]pyrazin-2-yl]methyl]-4-methyl-oxazolidin-2-one]
13 nM | O=C1OCCCN1Cc1cncc(-c2ccc(Cl)c(OC(F)F)c2)n1 [Example 35, 3-[[6-[4-Chloro-3-(difluoromethoxy)phenyl]pyrazin-2-yl]methyl]-1,3-oxazinan-2-one]
113 nM | Cc1ncc(-c2ccc(Cl)c(OC(F)F)c2)nc1CN1CC2(CC2)OC1=O [Example 36, 5-[[6-[4-Chloro-3-(difluoromethoxy)phenyl]-3-methyl-pyrazin-2-yl]methyl]-7-oxa-5-azaspiro[2.4]heptan-6-one]
18 nM | Cc1ncc(-c2ccc(Cl)c(OC(F)F)c2)nc1CN1CCCOC1=O [Example 37, 3-[[6-[4-Chloro-3-(difluoromethoxy)phenyl]-3-methyl-pyrazin-2-yl]methyl]-1,3-oxazinan-2-one]

IC50 | SMILES
17 nM | CC(F)(F)c1cccc(-c2cncc(CN3CC4(CC4)OC3=O)n2)c1 [Example 38, 5-[[6-[3-(1,1-Difluoroethyl)phenyl]pyrazin-2-yl]methyl]-7-oxa-5-azaspiro[2.4]heptan-6-one]
4510 nM | CC1(C)CN(Cc2cncc(-c3cccc(C(C)(F)F)c3)n2)C(=O)O1 [Example 39, 3-[[6-[3-(1,1-Difluoroethyl)phenyl]pyrazin-2-yl]methyl]-5,5-dimethyl-oxazolidin-2-one]
39 nM | C[C@@H]1CN(Cc2cncc(-c3cccc(C(C)(F)F)c3)n2)C(=O)O1 [Example 40, (5R)-3-[[6-[3-(1,1-Difluoroethyl)phenyl]pyrazin-2-yl]methyl]-5-methyl-oxazolidin-2-one]
167 nM | C[C@H]1CN(Cc2cncc(-c3cccc(C(C)(F)F)c3)n2)C(=O)O1 [Example 41, (5S)-3-[[6-[3-(1,1-Difluoroethyl)phenyl]pyrazin-2-yl]methyl]-5-methyl-oxazolidin-2-one]
105 nM | CC(F)(F)c1cccc(-c2cncc(CN3CCCOC3=O)n2)c1 [Example 42, 3-[[6-[3-(1,1-Difluoroethyl)phenyl]pyrazin-2-yl]methyl]-1,3-oxazinan-2-one]
203 nM | Cc1ncc(-c2cccc(C(C)(F)F)c2)nc1CN1CC2(CC2)OC1=O [Example 43, 5-[[6-[3-(1,1-Difluoroethyl)phenyl]-3-methyl-pyrazin-2-yl]methyl]-7-oxa-5-azaspiro[2.4]heptan-6-one]
> 3000 nM | Cc1ncc(-c2cccc(C(C)(F)F)c2)nc1CN1CC(C)(C)OC1=O [Example 44, 3-[[6-[3-(1,1-Difluoroethyl)phenyl]-3-methyl-pyrazin-2-yl]methyl]-5,5-dimethyl-oxazolidin-2-one]
127 nM | Cc1ncc(-c2cccc(C(C)(F)F)c2)nc1CN1CCCOC1=O [Example 45, 3-[[6-[3-(1,1-Difluoroethyl)phenyl]-3-methyl-pyrazin-2-yl]methyl]-1,3-oxazinan-2-one]
166 nM | C[C@@H]1COC(=O)N1Cc1cncc(-c2ccc(F)c(C(C)(F)F)c2)n1 [Example 46, (4R)-3-[[6-[3-(1,1-Difluoroethyl)-4-fluoro-phenyl]pyrazin-2-yl]methyl]-4-methyl-oxazolidin-2-one]
624 nM | C[C@H]1COC(=O)N1Cc1cncc(-c2ccc(F)c(C(C)(F)F)c2)n1 [Example 47, (4S)-3-[[6-[3-(1,1-Difluoroethyl)-4-fluoro-phenyl]pyrazin-2-yl]methyl]-4-methyl-oxazolidin-2-one]
124 nM | CC(F)(F)c1cccc(-c2cncc(CN3CCC4(CC4)OC3=O)n2)c1 [Example 48, 6-[[6-[3-(1,1-Difluoroethyl)phenyl]pyrazin-2-yl]methyl]-8-oxa-6-azaspiro[2.5]octan-7-one]
48 nM | O=C1OC2(CCN1Cc1cncc(-c3ccc(F)c(OC(F)F)c3)n1)CC2 [Example 49, 6-[[6-[3-(Difluoromethoxy)-4-fluoro-phenyl]pyrazin-2-yl]methyl]-8-oxa-6-azaspiro[2.5]octan-7-one]
49 nM | O=C1OC2(CCN1Cc1cncc(-c3ccc(Cl)c(OC(F)F)c3)n1)CC2 [Example 50, 6-[[6-[4-Chloro-3-(difluoromethoxy)phenyl]pyrazin-2-yl]methyl]-8-oxa-6-azaspiro[2.5]octan-7-one]
61 nM | O=C1OC2(CCN1Cc1cncc(-c3ccc(F)c(C(F)F)c3)n1)CC2 [Example 52, 6-[[6-[3-(Difluoromethyl)-4-fluoro-phenyl]pyrazin-2-yl]methyl]-8-oxa-6-azaspiro[2.5]octan-7-one]
102 nM | Cc1ncc(-c2ccc(F)c(C(F)F)c2)nc1CN1CCC2(CC2)OC1=O [Example 53, 6-[[6-[3-(Difluoromethyl)-4-fluoro-phenyl]-3-methyl-pyrazin-2-yl]methyl]-8-oxa-6-azaspiro[2.5]octan-7-one]
74 nM | Cc1ncc(-c2ccc(F)c(OC(F)F)c2)nc1CN1CCC2(CC2)OC1=O [Example 54, 6-[[6-[3-(Difluoromethoxy)-4-fluoro-phenyl]-3-methyl-pyrazin-2-yl]methyl]-8-oxa-6-azaspiro[2.5]octan-7-one]
2000 nM | O=C1OC(C(=O)N2CCC2)CN1Cc1cncc(-c2ccc(Cl)c(OC(F)F)c2)n1 (stereo not shown) [Example 57, 5-(Azetidine-1-carbonyl)-3-[[6-[4-chloro-3-(difluoromethoxy)phenyl]pyrazin-2-yl]methyl]oxazolidin-2-one]
